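How tested: cells in 96-well plates exposed to compound for 48 hours at five concentrations. The concentration for full growth arrest is given as TGI.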
Legend:
Assay in all cases: growth of human tumour cells (NCI), 48 h
HL-60(TB) leukemia = test system: HL-60(TB) leukemia
OVCAR-3 ovarian = test system: OVCAR-3 ovarian
SF-268 CNS = test system: SF-268 CNS
NCI-H522 lung = test system: NCI-H522 lung
UACC-257 melanoma = test system: UACC-257 melanoma
SK-MEL-2 melanoma = test system: SK-MEL-2 melanoma
SK-MEL-28 melanoma = test system: SK-MEL-28 melanoma
M14 melanoma = test system: M14 melanoma
NCI-H23 lung = test system: NCI-H23 lung
UO-31 renal = test system: UO-31 renal
LOX IMVI melanoma = test system: LOX IMVI melanoma
DLD-1 colon = test system: DLD-1 colon
786-0 renal = test system: 786-0 renal
SW-620 colon = test system: SW-620 colon
SF-539 CNS = test system: SF-539 CNS
M19-MEL melanoma = test system: M19-MEL melanoma
SN12C renal = test system: SN12C renal
U251 CNS = test system: U251 CNS
HOP-18 NSCLC = test system: HOP-18 NSCLC
HCC-2998 colon = test system: HCC-2998 colon
ACHN renal = test system: ACHN renal
HCT-15 colon = test system: HCT-15 colon
MOLT-4 leukemia = test system: MOLT-4 leukemia
HOP-92 NSCLC = test system: HOP-92 NSCLC
SR leukemia = test system: SR leukemia
EKVX NSCLC = test system: EKVX NSCLC
COLO 205 colon = test system: COLO 205 colon
DMS 114 small cell lung = test system: DMS 114 small cell lung
NCI-H226 lung = test system: NCI-H226 lung
SNB-19 CNS = test system: SNB-19 CNS
CCRF-CEM leukemia = test system: CCRF-CEM leukemia
TK-10 renal = test system: TK-10 renal
KM12 colon = test system: KM12 colon
XF 498 CNS = test system: XF 498 CNS
A549 NSCLC = test system: A549 NSCLC
K-562 leukemia = test system: K-562 leukemia
SF-295 CNS = test system: SF-295 CNS
SNB-75 CNS = test system: SNB-75 CNS
OVCAR-5 ovarian = test system: OVCAR-5 ovarian
OVCAR-8 ovarian = test system: OVCAR-8 ovarian
MALME-3M melanoma = test system: MALME-3M melanoma
RPMI-8226 leukemia = test system: RPMI-8226 leukemia
RXF 393 renal = test system: RXF 393 renal
SNB-78 CNS = test system: SNB-78 CNS
UACC-62 melanoma = test system: UACC-62 melanoma
NCI/ADR-RES ovarian = test system: NCI/ADR-RES ovarian
SK-OV-3 ovarian = test system: SK-OV-3 ovarian
HOP-62 NSCLC = test system: HOP-62 NSCLC
HT29 colon = test system: HT29 colon
A498 renal = test system: A498 renal
T-47D breast = test system: T-47D breast
IGROV1 ovarian = test system: IGROV1 ovarian
OVCAR-4 ovarian = test system: OVCAR-4 ovarian
CAKI-1 renal = test system: CAKI-1 renal
HS 578T breast = test system: HS 578T breast
SK-MEL-5 melanoma = test system: SK-MEL-5 melanoma
BT-549 breast = test system: BT-549 breast
MCF7 breast = test system: MCF7 breast
PC-3 prostate = test system: PC-3 prostate
MDA-MB-435 = test system: MDA-MB-435
MDA-MB-231 breast = test system: MDA-MB-231 breast
NCI-H460 lung = test system: NCI-H460 lung
HCT-116 colon = test system: HCT-116 colon
DU-145 prostate = test system: DU-145 prostate
MDA-N = test system: MDA-N

## O=C1C2C3C=C4c5ccccc5N(c5ccccc5)C4([C@@H]2C(=O)N1c1ccc(F)cc1)[C@H]1C(=O)N(c2ccc(F)cc2)C(=O)[C@@H]31 (stereo not given in full)
HL-60(TB) leukemia
  TGI: > 100 µM
OVCAR-3 ovarian
  TGI: > 100 µM
SF-268 CNS
  TGI: > 100 µM
NCI-H522 lung
  TGI: > 100 µM
UACC-257 melanoma
  TGI: > 100 µM
SK-MEL-2 melanoma
  TGI: > 100 µM
SK-MEL-28 melanoma
  TGI: > 100 µM
M14 melanoma
  TGI: > 100 µM
NCI-H23 lung
  TGI: > 100 µM
UO-31 renal
  TGI: 88.6 µM
LOX IMVI melanoma
  TGI: > 100 µM
DLD-1 colon
  TGI: > 100 µM
786-0 renal
  TGI: > 100 µM
SW-620 colon
  TGI: > 100 µM
SF-539 CNS
  TGI: > 100 µM
M19-MEL melanoma
  TGI: > 100 µM
SN12C renal
  TGI: > 100 µM
U251 CNS
  TGI: > 100 µM
HOP-18 NSCLC
  TGI: > 100 µM
HCC-2998 colon
  TGI: > 100 µM
ACHN renal
  TGI: > 100 µM
HCT-15 colon
  TGI: > 100 µM
MOLT-4 leukemia
  TGI: > 100 µM
HOP-92 NSCLC
  TGI: > 100 µM
SR leukemia
  TGI: > 100 µM
EKVX NSCLC
  TGI: > 100 µM
COLO 205 colon
  TGI: > 100 µM
DMS 114 small cell lung
  TGI: > 100 µM
NCI-H226 lung
  TGI: > 100 µM
SNB-19 CNS
  TGI: > 100 µM
CCRF-CEM leukemia
  TGI: > 100 µM
TK-10 renal
  TGI: > 100 µM
KM12 colon
  TGI: > 100 µM
XF 498 CNS
  TGI: > 100 µM
A549 NSCLC
  TGI: > 100 µM
K-562 leukemia
  TGI: > 100 µM
SF-295 CNS
  TGI: > 100 µM
SNB-75 CNS
  TGI: > 100 µM
OVCAR-5 ovarian
  TGI: > 100 µM
OVCAR-8 ovarian
  TGI: > 100 µM
MALME-3M melanoma
  TGI: > 100 µM
RPMI-8226 leukemia
  TGI: > 100 µM
RXF 393 renal
  TGI: > 100 µM
SNB-78 CNS
  TGI: > 100 µM

## c1ccc(COC[C@H]2C3OCC([C@H](OCc4ccccc4)[C@H]3OCc3ccccc3)N2Cc2ccccc2)cc1 (stereo not given in full)
HL-60(TB) leukemia
  TGI: > 53.4 µM
UACC-62 melanoma
  TGI: > 100 µM
OVCAR-3 ovarian
  TGI: > 100 µM
NCI/ADR-RES ovarian
  TGI: > 100 µM
SK-OV-3 ovarian
  TGI: > 100 µM
SF-268 CNS
  TGI: > 100 µM
NCI-H522 lung
  TGI: > 82 µM
UACC-257 melanoma
  TGI: > 100 µM
SK-MEL-2 melanoma
  TGI: > 100 µM
SK-MEL-28 melanoma
  TGI: > 100 µM
HOP-62 NSCLC
  TGI: > 100 µM
HT29 colon
  TGI: > 100 µM
A498 renal
  TGI: > 100 µM
T-47D breast
  TGI: > 100 µM
M14 melanoma
  TGI: > 100 µM
NCI-H23 lung
  TGI: > 100 µM
UO-31 renal
  TGI: > 100 µM
IGROV1 ovarian
  TGI: > 100 µM
LOX IMVI melanoma
  TGI: > 100 µM
786-0 renal
  TGI: > 100 µM
OVCAR-4 ovarian
  TGI: > 100000 nM
SW-620 colon
  TGI: > 100 µM
SF-539 CNS
  TGI: > 100 µM
CAKI-1 renal
  TGI: > 100 µM
SN12C renal
  TGI: > 100 µM
U251 CNS
  TGI: > 100 µM
HS 578T breast
  TGI: > 100 µM
HCC-2998 colon
  TGI: > 100 µM
ACHN renal
  TGI: > 100 µM
HCT-15 colon
  TGI: > 100 µM
SK-MEL-5 melanoma
  TGI: > 100 µM
BT-549 breast
  TGI: > 100 µM
MCF7 breast
  TGI: > 100 µM
MOLT-4 leukemia
  TGI: > 51.7 µM
HOP-92 NSCLC
  TGI: > 100 µM
SR leukemia
  TGI: > 100 µM
PC-3 prostate
  TGI: > 100 µM
EKVX NSCLC
  TGI: > 100 µM
MDA-MB-435
  TGI: > 100 µM
COLO 205 colon
  TGI: > 100 µM
NCI-H226 lung
  TGI: > 100 µM
SNB-19 CNS
  TGI: > 100 µM
CCRF-CEM leukemia
  TGI: > 100 µM
TK-10 renal
  TGI: > 100 µM
KM12 colon
  TGI: > 100 µM
MDA-MB-231 breast
  TGI: > 100 µM
A549 NSCLC
  TGI: > 100 µM
K-562 leukemia
  TGI: > 83 µM
SF-295 CNS
  TGI: > 100 µM
SNB-75 CNS
  TGI: > 100 µM
NCI-H460 lung
  TGI: > 100 µM
OVCAR-5 ovarian
  TGI: > 100 µM
OVCAR-8 ovarian
  TGI: > 100 µM
HCT-116 colon
  TGI: > 100 µM
MALME-3M melanoma
  TGI: > 100 µM
RPMI-8226 leukemia
  TGI: > 100 µM
RXF 393 renal
  TGI: > 100 µM
DU-145 prostate
  TGI: > 100 µM
MDA-N
  TGI: > 100 µM

## S=C1Cc2c(-c3ccccc3)cc(-c3ccc(Cl)cc3)nc2-c2ccccc2N1
HL-60(TB) leukemia
  TGI: > 100 µM
UACC-62 melanoma
  TGI: > 20.7 µM
OVCAR-3 ovarian
  TGI: 9.9 µM
NCI/ADR-RES ovarian
  TGI: > 27.3 µM
SK-OV-3 ovarian
  TGI: 7.26 µM
SF-268 CNS
  TGI: 6.8 µM
NCI-H522 lung
  TGI: > 24.2 µM
UACC-257 melanoma
  TGI: 22.2 µM
SK-MEL-2 melanoma
  TGI: 20.9 µM
SK-MEL-28 melanoma
  TGI: > 31.9 µM
HOP-62 NSCLC
  TGI: 3.16 µM
HT29 colon
  TGI: 15.2 µM
A498 renal
  TGI: 4.27 µM
T-47D breast
  TGI: > 57.3 µM
M14 melanoma
  TGI: > 38.5 µM
NCI-H23 lung
  TGI: 19.8 µM
UO-31 renal
  TGI: > 24 µM
IGROV1 ovarian
  TGI: 4.36 µM
LOX IMVI melanoma
  TGI: > 46.8 µM
OVCAR-4 ovarian
  TGI: 1710 nM
SW-620 colon
  TGI: 11.6 µM
SF-539 CNS
  TGI: 10.8 µM
CAKI-1 renal
  TGI: 3.33 µM
SN12C renal
  TGI: 5.26 µM
U251 CNS
  TGI: 2.34 µM
HS 578T breast
  TGI: 4.23 µM
HCC-2998 colon
  TGI: > 36.8 µM
ACHN renal
  TGI: 2.69 µM
HCT-15 colon
  TGI: > 54.7 µM
SK-MEL-5 melanoma
  TGI: > 100 µM
BT-549 breast
  TGI: 37.9 µM
MCF7 breast
  TGI: > 72.6 µM
MOLT-4 leukemia
  TGI: > 100 µM
HOP-92 NSCLC
  TGI: 3.53 µM
SR leukemia
  TGI: > 100 µM
PC-3 prostate
  TGI: 30.9 µM
EKVX NSCLC
  TGI: > 27.1 µM
MDA-MB-435
  TGI: > 38.8 µM
COLO 205 colon
  TGI: > 42 µM
NCI-H226 lung
  TGI: > 31.9 µM
SNB-19 CNS
  TGI: 4.14 µM
CCRF-CEM leukemia
  TGI: > 100 µM
TK-10 renal
  TGI: 8.41 µM
KM12 colon
  TGI: 51.3 µM
MDA-MB-231 breast
  TGI: 5.22 µM
A549 NSCLC
  TGI: > 33.9 µM
SF-295 CNS
  TGI: 18.9 µM
SNB-75 CNS
  TGI: 3.14 µM
NCI-H460 lung
  TGI: > 100 µM
OVCAR-5 ovarian
  TGI: 51.4 µM
OVCAR-8 ovarian
  TGI: 4.64 µM
HCT-116 colon
  TGI: 13.7 µM
MALME-3M melanoma
  TGI: 13 µM
RPMI-8226 leukemia
  TGI: > 100 µM
RXF 393 renal
  TGI: 11.2 µM
DU-145 prostate
  TGI: 53.1 µM
MDA-N
  TGI: 16.2 µM

Source: PubChem BioAssay (NCI)
